One data set deals with Cytochrome P450 2C9 (Homo sapiens, UniProt P11712).
Data set [1] deals with T1, DNA repair and recombination protein RAD54-like (Homo sapiens, UniProt Q92698).
T1 sequence (Q92698 whole entry): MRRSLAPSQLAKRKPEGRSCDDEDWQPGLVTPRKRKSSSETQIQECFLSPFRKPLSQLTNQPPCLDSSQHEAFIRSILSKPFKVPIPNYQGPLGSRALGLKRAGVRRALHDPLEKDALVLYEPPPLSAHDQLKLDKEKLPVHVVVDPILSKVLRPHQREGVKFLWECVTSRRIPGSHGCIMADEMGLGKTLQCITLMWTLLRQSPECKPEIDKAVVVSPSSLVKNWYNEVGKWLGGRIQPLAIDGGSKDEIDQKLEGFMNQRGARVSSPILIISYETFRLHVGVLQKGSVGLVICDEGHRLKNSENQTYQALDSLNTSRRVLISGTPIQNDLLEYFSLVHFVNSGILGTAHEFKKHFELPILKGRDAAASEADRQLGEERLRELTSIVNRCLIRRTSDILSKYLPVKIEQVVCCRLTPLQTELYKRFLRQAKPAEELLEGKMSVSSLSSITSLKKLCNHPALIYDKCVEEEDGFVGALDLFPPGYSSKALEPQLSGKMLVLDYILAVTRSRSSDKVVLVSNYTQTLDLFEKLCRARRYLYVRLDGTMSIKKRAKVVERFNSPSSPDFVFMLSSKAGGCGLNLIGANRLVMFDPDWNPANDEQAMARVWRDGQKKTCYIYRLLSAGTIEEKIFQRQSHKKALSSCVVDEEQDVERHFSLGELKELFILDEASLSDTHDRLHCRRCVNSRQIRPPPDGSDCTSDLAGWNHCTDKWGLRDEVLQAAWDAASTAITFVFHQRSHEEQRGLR
As to the kind of experiment: inhibitors of human RAD54 branch migration, confirmation, biochemical, fluorescence, cherry-picked samples, dose series (AID 651657). In kind it is functional.

For data set [2], the target named is T2, Short transient receptor potential channel 4 (Mus musculus, UniProt Q9QUQ5).
T2 sequence (Q9QUQ5 whole entry): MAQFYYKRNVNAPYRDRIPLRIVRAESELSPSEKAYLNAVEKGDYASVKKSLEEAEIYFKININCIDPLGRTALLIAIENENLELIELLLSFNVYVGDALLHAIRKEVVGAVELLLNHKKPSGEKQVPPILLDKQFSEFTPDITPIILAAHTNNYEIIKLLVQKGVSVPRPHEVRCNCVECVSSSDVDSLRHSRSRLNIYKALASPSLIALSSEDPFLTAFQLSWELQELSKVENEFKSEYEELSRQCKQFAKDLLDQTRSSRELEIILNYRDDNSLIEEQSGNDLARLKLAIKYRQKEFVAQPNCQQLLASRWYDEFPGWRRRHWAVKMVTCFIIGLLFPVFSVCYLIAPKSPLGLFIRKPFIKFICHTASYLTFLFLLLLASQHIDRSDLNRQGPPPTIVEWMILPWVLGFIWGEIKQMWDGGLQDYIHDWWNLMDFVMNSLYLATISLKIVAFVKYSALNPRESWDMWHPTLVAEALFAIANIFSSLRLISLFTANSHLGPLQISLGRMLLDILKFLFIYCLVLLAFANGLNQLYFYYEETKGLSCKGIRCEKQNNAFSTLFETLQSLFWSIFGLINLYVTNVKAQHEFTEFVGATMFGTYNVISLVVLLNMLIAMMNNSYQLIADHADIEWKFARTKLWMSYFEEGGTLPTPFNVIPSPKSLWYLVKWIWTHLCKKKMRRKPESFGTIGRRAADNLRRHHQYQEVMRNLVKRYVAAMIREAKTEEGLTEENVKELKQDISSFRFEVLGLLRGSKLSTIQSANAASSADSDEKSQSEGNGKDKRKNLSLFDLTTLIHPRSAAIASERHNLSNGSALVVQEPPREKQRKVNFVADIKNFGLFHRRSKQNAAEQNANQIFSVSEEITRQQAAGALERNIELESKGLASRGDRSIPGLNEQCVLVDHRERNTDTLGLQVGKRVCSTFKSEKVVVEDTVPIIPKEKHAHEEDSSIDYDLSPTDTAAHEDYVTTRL
As to the kind of experiment: mouse TRPC4 channel inhibitors, dose response, cell-based, HEK293 TRPC4/mu-opioid, Fluo-4 calcium (AID 434942).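 Also: potency of inhibitors blocking the TRPC4 calcium response.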 In kind it is functional.

Data set [3] can be described thus: Luminescence Cell-Based Dose Retest to Confirm Inhibitors of Cancer Stem Cells. [Related pubchem assays (depositor defined):AID2717, AID2721]. Format: functional. To be noted: Homo sapiens.
For another data set, the target named is Cytochrome P450 2D6 (Homo sapiens, UniProt P10635).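 Also: CYP2D6 member of a cytochrome P450 panel assay.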
Cytochrome P450 2D6, sequence (P10635 whole entry): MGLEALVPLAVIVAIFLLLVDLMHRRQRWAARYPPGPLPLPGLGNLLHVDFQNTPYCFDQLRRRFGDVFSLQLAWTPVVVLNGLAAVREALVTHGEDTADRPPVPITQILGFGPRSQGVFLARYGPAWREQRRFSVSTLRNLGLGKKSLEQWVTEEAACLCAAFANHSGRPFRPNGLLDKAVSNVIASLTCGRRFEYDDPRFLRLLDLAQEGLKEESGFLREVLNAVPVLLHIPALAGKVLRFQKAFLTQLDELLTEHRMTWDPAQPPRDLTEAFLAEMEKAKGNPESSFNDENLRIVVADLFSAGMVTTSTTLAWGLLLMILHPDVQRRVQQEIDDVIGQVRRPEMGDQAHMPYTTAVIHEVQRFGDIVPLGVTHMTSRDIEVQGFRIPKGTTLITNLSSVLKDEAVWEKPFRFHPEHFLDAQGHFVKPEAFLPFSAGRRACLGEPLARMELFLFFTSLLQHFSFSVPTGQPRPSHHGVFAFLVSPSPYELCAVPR
The test system of data set [4] is HEK293. As to the kind of experiment: inhibitors of LMP1-driven NF-kB reporter, dose response, cell-based, HEK293, luciferase, cherry-pick (AID 588343). In kind it is functional. To be noted: Homo sapiens.
Data set [5] is described as follows: Luminescence Cell-Based Dose Response HTS to Identify Inhibitors of 5'UTR Stem-Loop Driven Prion Protein mRNA Translation in H4 Neuroglioblastoma Cells. [Related pubchem assays: 1827 (Project Summary), 1813 (Primary HTS)]. In kind it is functional.
The nature of data set [6]: inhibitors of SNCA 5'UTR-driven reporter translation, confirmation, H4 neuroglioma cells, luminescence (AID 1988). Format: functional, cell-based.
Data set [7] is described as follows: inhibitors of firefly luciferase expression or activity, dose response, H4 neuroglioma cells, luminescence (AID 1990). In kind it is functional, cell-based.
The test system of a further data set is H9c2. As to the kind of experiment: cells. Format: functional, cell-based. To be noted: Rattus norvegicus, H9c2, Myocardium.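 Also: confirmatory concentration-response retest of ultra-high-throughput screening hits for modulation of myocardial damage; cell death induced by hydrogen peroxide oxidative stress; compound pretreatment for 60 min then peroxide exposure for 2 h; potency is for protecting the cells against peroxide damage rather than for killing them.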
For data set [8], the system named is HEK293. As to the kind of experiment: cells. To be noted: Homo sapiens. In kind it is functional, cell-based.
Data set [9] concerns HEK293. As to the kind of experiment: cells. In kind it is functional, cell-based. To be noted: Homo sapiens. This is another data set of the same source.
Data set [10] relates to HEK293. As to the kind of experiment: NOD2 signaling inhibitors in MDP-stimulated cells, cell-based, uHTS, luminescence (AID 2001). In kind it is functional. The note with it: Homo sapiens.
In data set [11] the test system is HEK293. As to the kind of experiment: NOD1 signaling inhibitors, primary screen, cell-based, luminescence, uHTS (AID 1578). Format: functional. To be noted: Homo sapiens.
For data set [12], the target named is T2, Short transient receptor potential channel 4. As to the kind of experiment: mouse TRPC4 channel activators, dose response, cell-based, HEK293 TRPC4/mu-opioid, Fluo-4 calcium (AID 434937). In kind it is functional.
Data set [13] addresses T3, Heat shock factor protein 1 (Mus musculus, UniProt P38532).
T3 sequence (P38532 whole entry): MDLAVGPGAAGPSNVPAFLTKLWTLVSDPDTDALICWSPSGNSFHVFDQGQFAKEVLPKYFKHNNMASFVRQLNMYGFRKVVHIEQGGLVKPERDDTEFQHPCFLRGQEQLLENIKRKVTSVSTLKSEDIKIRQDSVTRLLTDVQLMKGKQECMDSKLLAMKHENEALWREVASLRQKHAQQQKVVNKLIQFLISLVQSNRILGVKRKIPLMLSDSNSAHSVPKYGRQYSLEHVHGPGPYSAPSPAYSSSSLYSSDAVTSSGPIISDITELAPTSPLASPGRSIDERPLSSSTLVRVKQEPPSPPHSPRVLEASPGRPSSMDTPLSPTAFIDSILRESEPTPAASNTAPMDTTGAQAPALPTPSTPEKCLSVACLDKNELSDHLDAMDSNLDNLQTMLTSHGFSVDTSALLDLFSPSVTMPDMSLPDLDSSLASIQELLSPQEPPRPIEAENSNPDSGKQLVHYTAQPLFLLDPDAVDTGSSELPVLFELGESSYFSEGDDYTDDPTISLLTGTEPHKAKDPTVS
As to the kind of experiment: HSF1 potentiators in luciferase reporter cells, confirmation, cell-based, NIH3T3, luminescence, dose retest (AID 435004).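 Also: stress induced by proteasome inhibitor MG132 added 30 min after compound; luciferase reporter driven by HSF1 response element in NIH3T3 cells; actives raise luminescence as potentiators of the MG132 stress response.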 In kind it is functional. (In a reporter assay the amount or activity of a reporter protein is the signal.)

Data set [14] can be described thus: Luminescence Cell-Based Dose Confirmation HTS to Identify Inhibitors of Platelet Dense Granule Release. [Related pubchem assays: 1663 (Primary HTS), 1678 (Summary of Project)]. In kind it is functional.
Data set [15] has as its target Luciferin 4-monooxygenase (Photinus pyralis, UniProt P08659). As to the kind of experiment: firefly luciferase enzyme inhibitors, dose response, biochemical, luminescence (AID 1891).
Data set [16] is described as follows: inhibitors of clade B AD8 Env fusion, dose response, cell-based, cherry-pick (AID 652062).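 Also: luciferase signal from cell-cell fusion driven by HIV-1 clade B AD8 Env; potency is for inhibitors of fusion seen as a drop in luminescence.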 In kind it is functional.
Data set [17] is described as follows: inhibitors of HIV Env-driven cell fusion, dose response, cherry-pick (AID 652057). In kind it is functional, cell-based.
In another data set the target is Cytochrome P450 2C19 (Homo sapiens, UniProt P33261). As to the kind of experiment: Cytochrome panel assay with activity outcomes. Panel member name: p450-cyp2c19 Compounds with AC50 equal or less than 10 uM are considered active. Format: functional. The note with it: read-out: AC50.
Cytochrome P450 2C19, sequence (P33261 whole entry): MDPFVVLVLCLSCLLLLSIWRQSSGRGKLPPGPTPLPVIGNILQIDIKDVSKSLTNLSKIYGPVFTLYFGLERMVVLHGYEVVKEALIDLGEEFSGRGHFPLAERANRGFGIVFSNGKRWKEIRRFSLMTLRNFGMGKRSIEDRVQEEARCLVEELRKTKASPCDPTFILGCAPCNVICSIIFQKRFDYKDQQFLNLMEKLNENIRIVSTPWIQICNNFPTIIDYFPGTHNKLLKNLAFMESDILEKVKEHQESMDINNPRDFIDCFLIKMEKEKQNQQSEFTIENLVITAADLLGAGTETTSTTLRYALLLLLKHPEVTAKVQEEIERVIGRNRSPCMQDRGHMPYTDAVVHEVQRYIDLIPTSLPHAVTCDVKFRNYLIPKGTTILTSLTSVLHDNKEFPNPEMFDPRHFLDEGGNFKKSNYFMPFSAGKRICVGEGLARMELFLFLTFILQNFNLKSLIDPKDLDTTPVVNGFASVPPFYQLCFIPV

Active and inactive are the calls of the source.

Cytochrome P450 2C9, sequence (P11712 whole entry): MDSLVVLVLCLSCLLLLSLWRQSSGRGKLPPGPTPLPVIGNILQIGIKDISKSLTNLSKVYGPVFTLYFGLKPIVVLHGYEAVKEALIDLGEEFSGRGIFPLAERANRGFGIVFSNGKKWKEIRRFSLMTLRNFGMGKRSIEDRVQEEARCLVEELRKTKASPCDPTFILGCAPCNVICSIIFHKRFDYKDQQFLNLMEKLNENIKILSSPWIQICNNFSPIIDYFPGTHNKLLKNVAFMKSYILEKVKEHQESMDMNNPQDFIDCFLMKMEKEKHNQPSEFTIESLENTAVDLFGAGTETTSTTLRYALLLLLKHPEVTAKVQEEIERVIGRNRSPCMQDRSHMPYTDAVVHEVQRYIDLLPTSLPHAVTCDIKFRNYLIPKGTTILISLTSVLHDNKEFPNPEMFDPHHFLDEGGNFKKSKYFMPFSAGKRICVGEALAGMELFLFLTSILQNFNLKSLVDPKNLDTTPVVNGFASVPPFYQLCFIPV
Luciferin 4-monooxygenase, sequence (P08659 whole entry, the tested form may be a part): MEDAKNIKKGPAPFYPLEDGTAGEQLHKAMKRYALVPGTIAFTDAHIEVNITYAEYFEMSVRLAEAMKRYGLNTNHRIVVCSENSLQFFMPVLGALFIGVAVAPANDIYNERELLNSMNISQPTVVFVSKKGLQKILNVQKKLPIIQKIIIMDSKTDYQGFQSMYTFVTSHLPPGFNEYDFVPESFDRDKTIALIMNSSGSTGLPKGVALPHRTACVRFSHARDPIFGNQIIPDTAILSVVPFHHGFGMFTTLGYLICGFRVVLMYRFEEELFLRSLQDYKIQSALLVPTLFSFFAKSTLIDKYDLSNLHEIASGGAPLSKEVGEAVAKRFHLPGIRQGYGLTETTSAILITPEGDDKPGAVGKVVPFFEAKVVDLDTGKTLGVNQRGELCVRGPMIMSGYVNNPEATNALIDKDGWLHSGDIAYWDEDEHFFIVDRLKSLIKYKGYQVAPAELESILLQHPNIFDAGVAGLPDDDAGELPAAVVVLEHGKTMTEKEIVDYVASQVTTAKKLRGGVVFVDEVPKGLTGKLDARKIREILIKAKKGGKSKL

As a reminder, the AC50 is the concentration giving half of the maximal activity seen. For `CNCC[C@H](Oc1ccc(C(F)(F)F)cc1)c1ccccc1`, on Cytochrome P450 2C9, the half-maximal activity concentration (AC50) result is “inactive”.

As usually defined, the EC50 is the midpoint of the concentration-response curve. In the case of `Cc1ccc2nc(C)c3c(c2c1)N(c1ccc(F)cc1)CC3`, in [1], the AC50 is 97.9 µM (active). For the same compound, the 50% effective concentration (EC50) in data set [2] is 3.76 µM (active).

On to `O=C(CN1CCCC1)Nc1ccc(Cl)cc1C(=O)c1ccccc1`, for which the half-maximal activity concentration (AC50) in data set [3] is 16.1 µM (active). The 50% effective concentration (EC50) in data set [2] is 1.5 µM (active).

As to `COc1ccc(C(C(=O)NC2CCCCC2)N2CCC3(CC2)OCCO3)cc1` (stereo not drawn), the AC50 at Cytochrome P450 2D6 was 0.316 µM (inconclusive); on Cytochrome P450 2C9, “inconclusive”.

Consider `Cc1cc(C(=O)COc2cccnc2[N+](=O)[O-])c(C)n1-c1ccccc1F`, for which the half-maximal activity concentration (AC50) in the data set with HEK293 [4] was 2.61 µM (active). Moreover, the concentration for a half-maximal effect (EC50) in data set [5] was 16.8 µM (active); in data set [6] it was 0.791 µM (active); in [7] it was 6.07 µM (active).

A word on the IC50: it is the concentration that inhibits the measured activity by half. As to `COc1ccc(-c2csc(NC(=O)CCn3cnc4ccccc4c3=O)n2)cc1OC`, the concentration for half-maximal inhibition (IC50) in the data set with H9c2 was 27.9 µM (active).

For the compound `Cc1nc2cc(NC(=O)c3ccc([N+](=O)[O-])s3)ccc2s1`, the EC50 in data set [5] was 4.17 µM (active); in [6] it was 0.95 µM (active); in data set [7], < 0.1 µM (active); with HEK293 [11], 3.16 µM (active). For the same compound, the IC50 in the data set with HEK293 [8], in the data set with HEK293 [9] and in the data set on HEK293 [10] was > 20 µM (inactive) throughout.

On to `CN(C)C1(CNC(=O)CC(NC(=O)c2ccccc2Cl)c2ccccc2)CCCCC1` (stereo not drawn), for which the concentration giving a half-maximal response (EC50) in data set [12] is 0.668 µM (active); in data set [2], 0.299 µM (active).

With `O=C(CCc1nc(O)c2ccccc2n1)N1CCN(S(=O)(=O)c2ccccc2Br)CC1`, the IC50 in the data set with H9c2 is > 79 µM (inactive).

As to `COc1ccc(N2CCN(S(=O)(=O)c3ccc4c(c3)CCCC4)CC2)c([N+](=O)[O-])c1`, the half-maximal activity concentration (AC50) entry at Cytochrome P450 2C9 is “inconclusive”.

On to `Cc1ccsc1C(=O)C1CCCN(Cc2ccccc2O)C1` (stereo not drawn), for which the EC50 was > 260 µM (inactive) in data set [13] and 4.22 µM (active) in data set [2].

Turning to `Cc1cc(C)n(-c2nc(NCCN(C)C)c3c4c(sc3n2)COC(C)(C)C4)n1`, the AC50 in [1] was 100 µM (inactive).

With `COc1ccc(-c2cn3ccc(C)cc3n2)cc1`, the AC50 in the data set with HEK293 [4] was 2.62 µM (active). Also, the EC50 in data set [14] was 9.75 µM (active); in [15], 1.13 µM (active).

Regarding `O=C(CCCN1C(=O)c2cccc3cccc(c23)C1=O)N1CCN(c2ccccc2O)CC1`, the half-maximal inhibitory concentration (IC50) in the data set with H9c2 is 9.95 µM (active).

Consider `CCOc1ccc2nc(NC(=O)CN3CCC(n4nnc5cc(F)ccc54)CC3)sc2c1`, for which, in the data set on H9c2, the IC50 is > 79 µM (inactive).

As to `Cc1ccc2nc(O)c3cc(C(=O)NCCN4CCN(C)CC4)sc3c2c1`, the half-maximal activity concentration (AC50) in data set [1] is 56.7 µM (active).

In the case of `CCN(CC)c1nc2ccccc2c(N)c1-c1ccccc1`, the EC50 in [2] was 2.66 µM (active).

As to `CCOc1ccc2ccccc2c1CNCCc1ccc(S(N)(=O)=O)cc1`, the EC50 in data set [2] was 4.73 µM (active).

With `O=C(CCCc1ccc(N(CCCl)CCCl)cc1)NCc1ccccc1`, in the data set with HEK293 [4], the half-maximal activity concentration (AC50) was 2.74 µM (active).

In the case of `N#CC1(NC(=O)COC(=O)Cn2[nH]c(=O)c3ccccc3c2=O)CCCCC1`, the IC50 in the data set on H9c2 was > 79 µM (inactive).

As to `C[C@H](CO)N1C[C@H](C)[C@@H](CN(C)C(=O)[C@H](Cc2ccccc2)N(C)C)OCc2ccccc2-c2c(n(C)c3ccccc23)C1=O`, the half-maximal activity concentration (AC50) in data set [16] is 13.3 µM (active); in data set [17] it was 1.6 µM (active).

For the compound `FC(F)(F)c1cc(C(F)(F)F)c2ccc(N/N=C/c3cccc(Cl)c3)nc2n1`, the concentration at half-maximal activity (AC50) at Cytochrome P450 2C19 is 17.8 µM (inconclusive); on Cytochrome P450 2C9, “inconclusive”.

As for `COc1cccc(C(=O)NNC2=CC(=O)CC(C)(C)C2)c1`, the AC50 was 25.1 µM (inconclusive) at Cytochrome P450 2C19, 12.6 µM (inconclusive) on Cytochrome P450 2D6 and “inconclusive” at Cytochrome P450 2C9.

The values are drawn from ChEMBL document CHEMBL1201862, “PubChem BioAssay data set” (2004).
